Among the test systems are SNB-78; LXFL 529; M19-MEL; DMS-114; XF498; KM-20L2; RXF 631; DMS-273; HOP-18.
What all share (test): inhibition of tumour cell growth, NCI panel, 48 h

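Dose response: 5 concentrations. Exposure: 48 h. Format: 96-well plates. Endpoint: linear interpolation; highest concentration if not reached. GI50 marks 50% less growth.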 Active and inactive are the calls of the source. Rule as the data show it: active = GI50 up to about 1.1 µM and inactive = higher.

In the case of `Cc1ccc(NC(=O)CC(=O)n2nc(-c3ccccc3)c(/N=N\c3ccccc3[N+](=O)[O-])c2-c2ccccc2)cc1`, the GI50 in the assay with SNB-78 is > 100 µM (inactive); in the assay on LXFL 529, 38.6 µM (inactive); in the assay with M19-MEL, > 100 µM (inactive); in the assay with DMS-114 it was 84.5 µM (inactive); in the assay on XF498, 37.5 µM (inactive); with KM-20L2, > 100 µM (inactive). The GI50 is 27.6 µM (inactive) in the assay on RXF 631, 44 µM (inactive) with DMS-273 and > 100 µM (inactive) in the assay on HOP-18.

For the compound `O=S(=O)(NCn1ccc2ccccc21)c1ccccc1`, the GI50 in the assay with SNB-78 is > 53.1 µM (inactive); in the assay on LXFL 529 it was > 100 µM (inactive); with M19-MEL, > 100 µM (inactive); with XF498, > 100 µM (inactive); with KM-20L2, > 100 µM (inactive); in the assay on RXF 631 it was > 100 µM (inactive). Also, the GI50 was > 64.3 µM (inactive) with DMS-273 and > 100 µM (inactive) with HOP-18.

With `O=c1[nH]c(C2CCCCC2)nc2cc(Cl)ccc12`, the GI50 in the assay on SNB-78, in the assay with LXFL 529, in the assay with M19-MEL, with DMS-114, with KM-20L2 and in the assay on DMS-273 was > 100 µM (inactive) each time.

Consider `Cc1ccc2nc3cc(C)c(=O)cc-3sc2c1`, for which the GI50 in the assay with SNB-78 is > 100 µM (inactive); in the assay with LXFL 529, 78.5 µM (inactive); with M19-MEL, 16.1 µM (inactive); in the assay on DMS-114 it was 40.7 µM (inactive); in the assay with KM-20L2 it was > 100 µM (inactive); with DMS-273, > 100 µM (inactive). In addition, the GI50 in the assay on HOP-18 is > 100 µM (inactive).

Consider `CC1CC(C)C2OC2(C)C[C@H](C)C(=O)NC(C)C(=O)N(C)[C@H](Cc2c(Br)[nH]c3ccccc23)C(=O)N[C@@H](c2ccc(O)cc2)CC(=O)O1` (stereo not given in full), for which the GI50 is 0.309 µM (active) in the assay on SNB-78; 0.221 µM (active) in the assay with LXFL 529; 0.161 µM (active) in the assay with M19-MEL; 0.0348 µM (active) in the assay on DMS-114; 0.838 µM (active) in the assay with XF498; 0.15 µM (active) with KM-20L2. Moreover, the GI50 in the assay on RXF 631 was 0.76 µM (active); in the assay with DMS-273 it was 0.0241 µM (active).

On to `COc1ccc(/C=C2\CCCC(C(NO)c3ccc(OC)cc3)C2=NO)cc1` (stereo not given), for which the GI50 with SNB-78 was 45.7 µM (inactive); in the assay with LXFL 529, 28.1 µM (inactive); with M19-MEL, 46.3 µM (inactive); in the assay with DMS-114, 28.4 µM (inactive); in the assay on KM-20L2 it was 61.9 µM (inactive); in the assay on RXF 631 it was 40.5 µM (inactive). Moreover, the GI50 in the assay with DMS-273 is 45.9 µM (inactive); in the assay with HOP-18 it was 32.4 µM (inactive).

As for `O=NN(CCCl)C(=O)NC1CCC(=O)NC1=O` (stereo not given), the GI50 in the assay with SNB-78 was 176 µM (inactive); in the assay on M19-MEL it was 250 µM (inactive); in the assay with DMS-114, 214 µM (inactive); in the assay with XF498 it was 69 µM (inactive); in the assay on KM-20L2 it was 800 µM (inactive); with DMS-273, 160 µM (inactive). In addition, the GI50 in the assay with HOP-18 was 432 µM (inactive).

Consider `CC(=O)NC(CCCNC(=O)OCc1ccccc1)C(=O)O` (stereo not given), for which the GI50 with SNB-78 is 49.5 µM (inactive); with LXFL 529, 47.5 µM (inactive); in the assay on M19-MEL, > 100 µM (inactive); in the assay with DMS-114, > 100 µM (inactive); with XF498, > 100 µM (inactive); with KM-20L2 it was > 100 µM (inactive). In addition, the GI50 in the assay on RXF 631 and in the assay with DMS-273 was > 100 µM (inactive) each time.

For `COC1C(C)OC(OC2CC(C)(O)Cc3cc4c(c(O)c32)C(=O)c2c(O)cc3c(c2C4=O)OC2OC3(C)C(O)C(N(C)C)C2O)C(OC)C1(C)OC` (stereo not given), the GI50 in the assay with SNB-78 is 0.0282 µM (active); in the assay with LXFL 529, 0.0318 µM (active); in the assay with XF498, 0.0165 µM (active); in the assay on KM-20L2, 0.0299 µM (active); in the assay with RXF 631, 0.155 µM (active); in the assay with DMS-273, 0.015 µM (active). For the same compound, the GI50 in the assay on HOP-18 was 0.11 µM (active).

Take `CC1(O)CCn2c(=O)c3cc4ccccc4cc3c(=O)n2C1O` (stereo not given): the GI50 with LXFL 529, with M19-MEL, in the assay on DMS-114, with KM-20L2, in the assay on RXF 631 and in the assay on DMS-273 was > 100 µM (inactive) throughout. Further, the GI50 in the assay with HOP-18 is 26.8 µM (inactive).

With `CC(=O)Nc1ccccc1-c1nc2ccccc2nc1C`, the GI50 with SNB-78, in the assay with LXFL 529, in the assay with M19-MEL, with DMS-114, with KM-20L2 and with RXF 631 was > 100 µM (inactive) in each case. Besides, in the assay on HOP-18, the GI50 is > 100 µM (inactive).

Take `NN=C1/C(=C\c2ccccc2)CCC/C1=C/c1ccccc1`: the GI50 in the assay on SNB-78 is 50.5 µM (inactive); with LXFL 529, 31.4 µM (inactive); in the assay on M19-MEL, 31.6 µM (inactive); in the assay with DMS-114, 26.1 µM (inactive); in the assay on KM-20L2 it was 39.6 µM (inactive); with DMS-273 it was 39.9 µM (inactive). For the same compound, the GI50 with HOP-18 is 63.4 µM (inactive).

As for `C=CCNC(=O)/C=C\C(=O)O`, the GI50 in the assay with SNB-78, in the assay on LXFL 529, in the assay on M19-MEL, in the assay on DMS-114, with KM-20L2 and with RXF 631 was > 100 µM (inactive) in each case. Besides, the GI50 with DMS-273 and in the assay on HOP-18 was > 100 µM (inactive) in each case.

As for `Cc1nc(C(N)=O)c(N)n1CCN1CCN(C(=O)CCCCCCCCCCNC2NC=Nc3[nH]cnc32)CC1` (stereo not given), the GI50 is 39.5 µM (inactive) in the assay with SNB-78; 11.2 µM (inactive) in the assay with LXFL 529; 34.4 µM (inactive) in the assay with M19-MEL; 6.04 µM (inactive) with DMS-114; > 100 µM (inactive) in the assay with KM-20L2; > 100 µM (inactive) in the assay with RXF 631. For the same compound, in the assay with HOP-18, the GI50 was > 100 µM (inactive).

For the compound `CC(=O)/C=C\C1CC2C=CC1C2` (stereo not given), the GI50 in the assay on SNB-78 was 22.1 µM (inactive); in the assay on LXFL 529, 29.4 µM (inactive); with M19-MEL, 55.3 µM (inactive); with DMS-114, 21.5 µM (inactive); with KM-20L2, 40.2 µM (inactive); in the assay on RXF 631 it was 51.5 µM (inactive). Besides, the GI50 is 41 µM (inactive) in the assay on DMS-273 and 96.6 µM (inactive) in the assay with HOP-18.

For `COP(=O)(OC)/C(=N\Nc1ccc([N+](=O)[O-])cc1)NCc1ccccc1`, the GI50 was 31.8 µM (inactive) in the assay with LXFL 529; 37.3 µM (inactive) in the assay on M19-MEL; 21.4 µM (inactive) in the assay on DMS-114; 30.1 µM (inactive) in the assay with KM-20L2; 36.3 µM (inactive) in the assay with DMS-273.

Turning to `CCOC(=O)CCC1(C(=O)OCC)CCCC1=O` (stereo not given), the GI50 in the assay on SNB-78, in the assay on LXFL 529, in the assay on M19-MEL, in the assay on DMS-114, in the assay with XF498 and in the assay with KM-20L2 was > 100 µM (inactive) throughout. For the same compound, the GI50 in the assay on RXF 631 was > 100 µM (inactive); with DMS-273, 43.2 µM (inactive); with HOP-18, > 100 µM (inactive).

On to `Cc1c(N2CCN(C)CC2)nc2ccc(Cl)cc2c1-c1ccccc1`, for which the GI50 in the assay on SNB-78 was 16.3 µM (inactive); in the assay on LXFL 529 it was 16.9 µM (inactive); in the assay with DMS-114, 15.8 µM (inactive); in the assay on KM-20L2, 15.7 µM (inactive); in the assay on DMS-273, 17 µM (inactive).

For `COc1c(NC(C)=O)cc(C)cc1NC(C)=O`, the GI50 in the assay on SNB-78, with M19-MEL, in the assay on DMS-114, in the assay with XF498 and in the assay with DMS-273 was > 100 µM (inactive) in each case.

`O=C1NC2C(=O)N(Cc3ccccc3)C(=O)C2N1` (stereo not given): the GI50 with SNB-78, in the assay with LXFL 529, in the assay with M19-MEL, in the assay with DMS-114, with XF498 and in the assay on KM-20L2 was > 100 µM (inactive) in each case.

Consider `CC/C(CC(=O)CCC(=O)Nc1ccc(C)c(C)c1)=N\NC(=O)C(N)=O`, for which the GI50 in the assay with SNB-78, in the assay with LXFL 529, in the assay on M19-MEL, in the assay with DMS-114, in the assay on XF498 and in the assay with KM-20L2 was > 100 µM (inactive) in each case. Moreover, the GI50 with DMS-273 and in the assay on HOP-18 was > 100 µM (inactive) throughout.

`O=C(/C=C/c1c(O)ccc2ccccc12)c1ccc2ccccc2c1`: the GI50 is > 100 µM (inactive) in the assay on SNB-78; 18.2 µM (inactive) with M19-MEL; > 100 µM (inactive) in the assay with DMS-114; > 100 µM (inactive) in the assay on KM-20L2; > 100 µM (inactive) in the assay with DMS-273.

Source of the values: ChEMBL document CHEMBL1201862, “PubChem BioAssay data set” (2004).
